According to ChEMBL document CHEMBL1201862, “PubChem BioAssay data set” (2004):
Calls of active or inactive are those of the source. Rule as the data show it: actives have a measured IC50 and inactives only a lower limit.

Target: SUMO-activating enzyme (Homo sapiens, UniProt Q9UBT2)
Test: SUMOylation inhibitor hit validation, confirmation, SUMOylation inhibitor project, biochemical, AlphaScreen (AID 2018)
Type: functional

SUMO-activating enzyme, sequence (Q9UBE0 whole entry): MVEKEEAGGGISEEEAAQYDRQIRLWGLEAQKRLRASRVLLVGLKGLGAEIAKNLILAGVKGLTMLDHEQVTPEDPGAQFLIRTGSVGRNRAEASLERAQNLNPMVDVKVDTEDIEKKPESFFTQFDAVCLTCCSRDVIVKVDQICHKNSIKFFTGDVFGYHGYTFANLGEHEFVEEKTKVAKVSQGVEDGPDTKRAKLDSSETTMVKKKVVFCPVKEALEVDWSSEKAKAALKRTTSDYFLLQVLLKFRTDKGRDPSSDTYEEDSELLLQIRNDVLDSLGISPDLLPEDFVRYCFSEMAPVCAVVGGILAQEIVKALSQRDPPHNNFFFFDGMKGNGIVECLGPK
SUMO-activating enzyme, sequence (Q9UBT2 whole entry): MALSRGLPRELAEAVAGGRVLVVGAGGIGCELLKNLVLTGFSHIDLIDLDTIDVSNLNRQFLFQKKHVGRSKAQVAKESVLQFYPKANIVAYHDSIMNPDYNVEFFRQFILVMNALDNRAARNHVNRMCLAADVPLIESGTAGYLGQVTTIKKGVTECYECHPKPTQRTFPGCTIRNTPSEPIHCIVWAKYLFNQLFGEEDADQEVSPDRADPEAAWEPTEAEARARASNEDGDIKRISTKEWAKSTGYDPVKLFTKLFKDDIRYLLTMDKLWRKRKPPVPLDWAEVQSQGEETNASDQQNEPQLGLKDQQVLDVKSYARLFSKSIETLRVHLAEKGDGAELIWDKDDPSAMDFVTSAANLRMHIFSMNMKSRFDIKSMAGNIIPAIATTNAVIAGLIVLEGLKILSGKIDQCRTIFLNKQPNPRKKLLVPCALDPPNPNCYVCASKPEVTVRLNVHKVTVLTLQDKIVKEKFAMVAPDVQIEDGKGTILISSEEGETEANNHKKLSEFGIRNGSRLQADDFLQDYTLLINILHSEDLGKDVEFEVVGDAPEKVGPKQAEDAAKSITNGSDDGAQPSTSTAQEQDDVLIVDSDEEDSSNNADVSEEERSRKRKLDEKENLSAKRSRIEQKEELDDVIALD

Q: `O=C1C=C(Nc2ccccc2C(=O)O)c2ccccc2C1=O` was tested. Which IC50 did it give?
A: 1900 nM (active)
